The data set is described as follows: in vitro. The conditions noted are these: human, hela cells, % viability.

In the case of `COc1ccc(/C=C(\C)C(=O)Nc2cccnc2N2CCNCC2)cc1OC` [CBK034124T], the viability (commonly a read-out of living cells in per cent, often relative to untreated cells) at 28.5 h, 10 µM turned out to be 88.3%.

Consider `O=C(/C=C/c1cccnc1)Nc1ccccc1N1CCNCC1` [CBK034136T], for which the viability at 28.5 h, 10 µM worked out at 102%.

Regarding `Cn1cc(C(=O)Nc2ccccc2N2CCNCC2)c2ccccc21` [CBK034141T], the viability at 28.5 h, 10 µM came out at 92.2%.

For the compound `COc1ccc([C@@]23CC[C@@H](NC(=O)Nc4ccc5ccccc5c4)C[C@@H]2N(C)CC3)cc1OC` [CBK034181T], the viability at 28.5 h, 10 µM was 102%.

For `CCOCCc1nsc(NS(=O)(=O)c2cccc(Cl)c2C)n1` [CBK034245], the viability at 28.5 h, 10 µM was found to be 102%.

Regarding `Cc1ccc(S(=O)(=O)N2CCN(C)CC2)cc1NC(=O)c1ccc(Br)o1` [CBK034260C], the viability at 28.5 h, 10 µM is 99.3%.

As to `O=C(NCc1ccncc1)c1csc2c(C(F)(F)F)cc(N3CCN(Cc4ccccc4)CC3)nc12` [CBK034294T], the viability at 28.5 h, 10 µM was determined as 98.6%.

With `NC(=O)c1ccc(SCC(=O)O)c([N+](=O)[O-])c1` [CBK034310], the viability at 28.5 h, 10 µM turned out to be 97.7%.

As to `CC(C)C(=O)NCCN1CCOCC1` [CBK034322], the viability at 28.5 h, 10 µM is 115%.

Regarding `CCOC(=O)N1CCCN(C(=O)OCC)CC1` [CBK034324], the viability at 28.5 h, 10 µM came to 101%.

For `CCCc1ccc(S(=O)(=O)Nc2cccc(C(=O)OCC)c2)cc1` [CBK034332], the viability at 28.5 h, 10 µM was found to be 92.5%.

Regarding `CCOC(=O)c1cccc(NS(=O)(=O)c2cc(Br)ccc2OC)c1` [CBK034336], the viability at 28.5 h, 10 µM amounted to 63.3%.

Take `CCOC(=O)c1cccc(NS(=O)(=O)c2ccc(-c3ccccc3)cc2)c1` [CBK034341]: the viability at 28.5 h, 10 µM worked out at 92.8%.

Take `CCOC(=O)c1cccc(NS(=O)(=O)c2cccc3cccnc23)c1` [CBK034345]: the viability at 28.5 h, 10 µM was determined as 57.2%.

In the case of `CCOC(=O)c1cccc(NS(=O)(=O)c2ccc(Br)cc2)c1` [CBK034346], the viability at 28.5 h, 10 µM was 97.7%.

Regarding `CCOC(=O)c1cccc(NS(=O)(=O)c2ccc(NC(C)=O)cc2)c1` [CBK034349], the viability at 28.5 h, 10 µM worked out at 78.8%.

As to `CC(=O)Nc1cc(S(N)(=O)=O)c(F)cc1C` [CBK034356], the viability at 28.5 h, 10 µM was 94.1%.

Turning to `CCN(CC)C(=O)c1ccc(NS(=O)(=O)c2cccc(Cl)c2C)cc1` [CBK034393], the viability at 28.5 h, 10 µM was found to be 108%.

Turning to `CCN(CC)C(=O)c1ccc(NS(=O)(=O)c2ccc(-c3ccccc3)cc2)cc1` [CBK034395], the viability at 28.5 h, 10 µM amounted to 97.5%.

As for `CCCc1ccc(S(=O)(=O)Nc2ccc(C(=O)N(CC)CC)cc2)cc1` [CBK034403], the viability at 28.5 h, 10 µM came to 92.3%.

For `Cc1cc(F)c(S(=O)(=O)N2CCN(C)CC2)cc1NC(=O)c1cc2ccccc2o1` [CBK034419C], the viability at 28.5 h, 10 µM was 94%.

Turning to `CNS(=O)(=O)c1ccc(C)c(NC(C)=O)c1C` [CBK034426], the viability at 28.5 h, 10 µM is 88.5%.

In the case of `CCOC(=O)CNS(=O)(=O)c1cc(Cl)sc1Cl` [CBK034431], the viability at 28.5 h, 10 µM amounted to 113%.

`CCOC(=O)CNS(=O)(=O)Cc1ccccc1[N+](=O)[O-]` [CBK034439]: the viability at 28.5 h, 10 µM was 95.3%.

Regarding `CCOC(=O)CNS(=O)(=O)c1cccc2cccnc12` [CBK034440], the viability at 28.5 h, 10 µM came out at 115%.

For `Cc1ccc(S(=O)(=O)NCC(=O)O)cc1[N+](=O)[O-]` [CBK034459], the viability at 28.5 h, 10 µM stood at 114%.

On to `O=C(O)CNS(=O)(=O)c1ccc(F)cc1` [CBK034464], for which the viability at 28.5 h, 10 µM is 122%.

Take `Cc1noc(C)c1S(=O)(=O)NCC(=O)N1CCOCC1` [CBK034476]: the viability at 28.5 h, 10 µM was determined as 94.9%.

`CN1CCN(C(=O)CNS(=O)(=O)c2ccc(Br)cc2)CC1` [CBK034478]: the viability at 28.5 h, 10 µM stood at 101%.

Take `CCN(CC)C(=O)CNS(=O)(=O)c1ccc(C)cc1` [CBK034491]: the viability at 28.5 h, 10 µM is 103%.

Turning to `CCN(CC)C(=O)CNS(=O)(=O)c1cc(Br)c(Cl)s1` [CBK034500], the viability at 28.5 h, 10 µM is 112%.

For `CN1CCN(C(=O)c2ccc(NS(=O)(=O)c3cc(Cl)sc3Cl)cc2)CC1` [CBK034549], the viability at 28.5 h, 10 µM came out at 94%.

Consider `CC(=O)Nc1ccc(S(=O)(=O)Nc2ccc(C(=O)N3CCOCC3)cc2)cc1` [CBK034564], for which the viability at 28.5 h, 10 µM came out at 94.9%.

As to `CCn1nnc(C2=CCCN(C)C2)n1` [CBK034628E], the viability at 28.5 h, 10 µM turned out to be 104%.

For the compound `COc1ccccc1CN(CCCN)C(=O)NC(C)c1ccccc1` (stereo not drawn) [CBK034667C], the viability at 28.5 h, 10 µM was found to be 87.3%.

As for `CC(C)(C)c1ccccc1NC(=O)N(CCCN)Cc1cc(F)cc(F)c1` [CBK034697C], the viability at 28.5 h, 10 µM is 82.7%.

On to `Cc1c(F)cccc1CN(CCCN)C(=O)Nc1ccccc1C(C)(C)C` [CBK034699C], for which the viability at 28.5 h, 10 µM came out at 89.3%.

`N#Cc1ccsc1NS(=O)(=O)c1ccc(Cl)c(Cl)c1` [CBK034735]: the viability at 28.5 h, 10 µM was 95%.

`O=C(NC(=O)C1CCNCC1)Nc1ccc(F)cc1F` [CBK034793]: the viability at 28.5 h, 10 µM was 115%.

As for `COc1cccc(NC(=O)NC(=O)C2CCN(C(C)C)CC2)c1` [CBK034798], the viability at 28.5 h, 10 µM amounted to 89.6%.

In the case of `COc1cc(CNC(=O)NC(=O)C2CCN(C(C)C)CC2)cc(OC)c1OC` [CBK034800], the viability at 28.5 h, 10 µM stood at 82.9%.

For `CC(C)N1CCC(C(=O)NC(=O)NCCc2ccc3c(c2)OCO3)CC1` [CBK034804], the viability at 28.5 h, 10 µM worked out at 96.6%.

As to `Cc1ccc(OCCNC(=O)NC(=O)C2CCN(C)CC2)c2c1CCC2` [CBK034824], the viability at 28.5 h, 10 µM stood at 115%.

In the case of `CN1CCC(C(=O)NC(=O)NC2CCCCC2)CC1` [CBK034825], the viability at 28.5 h, 10 µM came out at 112%.

As for `CN1CCC(C(=O)NC(=O)Nc2ccccc2F)CC1` [CBK034827], the viability at 28.5 h, 10 µM is 93.2%.

In the case of `COc1ccccc1NC(=O)NC(=O)C1CCN(C)CC1` [CBK034830], the viability at 28.5 h, 10 µM stood at 96.6%.

Regarding `COc1cc(NC(=O)NC(=O)C2CCN(C(C)=O)CC2)cc(OC)c1OC` [CBK034831], the viability at 28.5 h, 10 µM is 114%.

As to `CC(=O)N1CCC(C(=O)NC(=O)NCc2ccc3c(c2)CCO3)CC1` [CBK034837], the viability at 28.5 h, 10 µM turned out to be 93.8%.

For `CC(=O)N1CCC(C(=O)NC(=O)NCCOc2ccccc2Cl)CC1` [CBK034842], the viability at 28.5 h, 10 µM came out at 97.9%.

For the compound `CC(=O)N1CCC(C(=O)NC(=O)Nc2ccccc2F)CC1` [CBK034848], the viability at 28.5 h, 10 µM is 107%.

`CCOc1ccc(NC(=O)NC(=O)C2CCN(C(C)=O)CC2)cc1` [CBK034852]: the viability at 28.5 h, 10 µM stood at 119%.

Turning to `COc1ccccc1NC(=O)NC(=O)C1CCN(C(C)=O)CC1` [CBK034853], the viability at 28.5 h, 10 µM turned out to be 119%.

Regarding `CC(=O)N1CCC(C(=O)NC(=O)Nc2cccc(C)c2)CC1` [CBK034854], the viability at 28.5 h, 10 µM is 94.3%.

As to `COc1ccc(CCCN2CCC(C(=O)NC(=O)Nc3cc(OC)c(OC)c(OC)c3)CC2)cc1` [CBK034855], the viability at 28.5 h, 10 µM is 86.3%.

In the case of `COc1cc(CNC(=O)NC(=O)C2CCN(CCc3cccc(O)c3)CC2)cc(OC)c1OC` [CBK034857], the viability at 28.5 h, 10 µM turned out to be 93.2%.

In the case of `COc1cc(CNC(=O)NC(=O)C2CCN(CCc3c(-c4ccccc4)[nH]c4ccccc34)CC2)cc(OC)c1OC` [CBK034859], the viability at 28.5 h, 10 µM was 91.7%.

Regarding `COc1ccc(CNC(=O)NC(=O)C2CCN(S(C)(=O)=O)CC2)c(OC)c1` [CBK034861], the viability at 28.5 h, 10 µM came to 89.4%.

On to `COc1ccc(CNC(=O)NC(=O)C2CCN(CCc3c[nH]c4ccccc34)CC2)c(OC)c1` [CBK034864], for which the viability at 28.5 h, 10 µM was found to be 90%.

As for `COc1ccccc1CCCN1CCC(C(=O)NC(=O)Nc2ccccc2)CC1` [CBK034865], the viability at 28.5 h, 10 µM was found to be 89.7%.

For `Cc1cccc(NC(=O)NC(=O)C2CCN(CCOc3ccccc3)CC2)c1` [CBK034868], the viability at 28.5 h, 10 µM came out at 89.9%.

Consider `CC(C)c1ccc(NC(=O)NC(=O)C2CCN(CCOc3ccc4ccccc4c3)CC2)c(C(C)C)c1` [CBK034883], for which the viability at 28.5 h, 10 µM worked out at 96%.

Regarding `O=C(NCCOc1ccccc1Cl)NC(=O)C1CCN(CCOc2ccc(Br)cc2)CC1` [CBK034897], the viability at 28.5 h, 10 µM stood at 84.6%.

Turning to `COc1ccccc1NC(=O)NC(=O)C1CCN(CCc2cccs2)CC1` [CBK034912], the viability at 28.5 h, 10 µM came to 87.5%.

For the compound `CC(C)NC(=O)NC(=O)C1CCN(CCOc2ccc(Cl)cc2Cl)CC1` [CBK034949], the viability at 28.5 h, 10 µM is 106%.

Regarding `CNC(=O)NC(=O)C1CCN(CCc2ccccc2)CC1` [CBK034956], the viability at 28.5 h, 10 µM is 106%.

`CNC(=O)NC(=O)C1CCN(CCOc2ccccc2)CC1` [CBK034959]: the viability at 28.5 h, 10 µM is 94.7%.

As to `CNC(=O)NC(=O)C1CCN(CCc2cccs2)CC1` [CBK034960], the viability at 28.5 h, 10 µM is 106%.

Consider `CC(C)c1ccccc1NC(=O)NC(=O)C1CCN(CCc2ccc(C#N)cc2)CC1` [CBK035010], for which the viability at 28.5 h, 10 µM was 90.3%.

Take `CCCCOc1ccc(NC(=O)NC(=O)C2CCN(CCc3ccc(Br)cc3)CC2)cc1` [CBK035096]: the viability at 28.5 h, 10 µM was found to be 91.5%.

Consider `CCCCNC(=O)NC(=O)C1CCN(CCCOc2ccccc2)CC1` [CBK035198], for which the viability at 28.5 h, 10 µM turned out to be 110%.

Take `Cc1ccn2c(C3CCN(CCc4ccccc4)CC3)nc(-c3ccccc3)c2c1` [CBK035490]: the viability at 28.5 h, 10 µM turned out to be 89.4%.

On to `Cc1cccc(-c2nc(C3CCCNC3)n3ccccc23)c1` (stereo not drawn) [CBK035528], for which the viability at 28.5 h, 10 µM amounted to 92.3%.

Take `COc1ccc(-c2nc(CCN)n3ccccc23)cc1` [CBK035583]: the viability at 28.5 h, 10 µM turned out to be 94.3%.

With `COc1ccc(-c2nc(C3CCNCC3)n3ccccc23)cc1` [CBK035971], the viability at 28.5 h, 10 µM turned out to be 92.9%.

For `O=C1C2CCCCC2C(=O)N1CCCN1CCC(c2nc(-c3ccc(F)cc3)c3ccccn23)CC1` (stereo not drawn) [CBK035972], the viability at 28.5 h, 10 µM was 90.1%.

For `NCCOc1ncccc1OCc1ccccc1` [CBK036305], the viability at 28.5 h, 10 µM is 90.7%.

In the case of `CNCCOc1ncccc1OCc1ccccc1` [CBK036306], the viability at 28.5 h, 10 µM came out at 100%.

With `CN1CCCC1CCOc1ncccc1OCc1ccccc1` (stereo not drawn) [CBK036313], the viability at 28.5 h, 10 µM came to 93.1%.

Take `O=C(Nc1ccc(N2CCNCC2)c2ccccc12)c1cccnc1` [CBK036336T]: the viability at 28.5 h, 10 µM was 92.9%.

On to `COc1ccc(C(=O)Nc2cc3ccccc3c(N3CCNCC3)n2)cc1` [CBK036344T], for which the viability at 28.5 h, 10 µM is 91.2%.

As to `O=C(Nc1cc2ccccc2c(N2CCNCC2)n1)c1cnccn1` [CBK036346T], the viability at 28.5 h, 10 µM was 95.4%.

The record behind these values is paper PMC12040169 (PLOS Biology, 2025).
